Assay [1] relates to Staphylococcus aureus. As to the kind of experiment: Antimicrobial activity against Staphylococcus aureus CIP 4.83 after 18 to 24 hrs by broth microdilution method. The format is functional.
A further assay deals with Pseudomonas aeruginosa. As to the kind of experiment: Antimicrobial activity against Pseudomonas aeruginosa CIP 82.118 after 18 to 24 hrs by broth microdilution method. Format: functional.
A further assay has as its system Enterococcus hirae. Description: Antimicrobial activity against Enterococcus hirae CIP 5855 after 18 to 24 hrs by broth microdilution method. Format: functional.
Assay [2] concerns Staphylococcus aureus. As to the kind of experiment: Antimicrobial activity against methicillin-resistant Staphylococcus aureus ATCC 33591 after 18 to 24 hrs by broth microdilution method. Format: functional.
In assay [3] the test system is Staphylococcus aureus. Description: Antimicrobial activity against methicillin-resistant Staphylococcus aureus ATCC 33592 after 18 to 24 hrs by broth microdilution method. Format: functional.
Assay [4] relates to Staphylococcus aureus. As to the kind of experiment: Antimicrobial activity against multidrug-resistant Staphylococcus aureus isolate 1 after 18 to 24 hrs by broth microdilution method. Format: functional.
In another assay the test system is Escherichia coli. As to the kind of experiment: Antimicrobial activity against Escherichia coli CIP 53126 after 18 to 24 hrs by broth microdilution method. Format: functional.
Assay [5] has as its system Mycobacterium tuberculosis. As to the kind of experiment: Antimycobacterial activity against Mycobacterium tuberculosis H37Rv assessed as growth inhibition at 0.1 uM after 6 days by MTT colorimetric microassay. Format: functional, organism-based.
The subject of assay [6] is Mycobacterium tuberculosis. As to the kind of experiment: Antimycobacterial activity against Mycobacterium tuberculosis H37Rv assessed as growth inhibition at 10 uM after 6 days by MTT colorimetric microassay. The format is functional. As to conditions: for inhibition of growth at 10 µM: 144 h, read-out: GI.
For assay [7], the system named is Staphylococcus aureus. As to the kind of experiment: Antimicrobial activity against multidrug-resistant Staphylococcus aureus isolate 2 after 18 to 24 hrs by broth microdilution method. The format is functional.

≈ marks a conversion by molar mass, not a printed value. Calls of active or inactive are those of the source.

With `CCCCCCCCCCC(=O)OCC(=O)N1CCN(c2cc3c(cc2F)c(=O)c(C(=O)O)cn3C2CC2)CC1`, the MBC is at most 0.97 µM in the assay with Staphylococcus aureus [1]; 250 µM (≈ 139 µg/mL) in the assay on Pseudomonas aeruginosa; 1.9 µM (≈ 1.06 µg/mL) against Enterococcus hirae; 1.9 µM (≈ 1.06 µg/mL) against Staphylococcus aureus [2]; 0.03 µM (≈ 0.0167 µg/mL) in the assay with Staphylococcus aureus [3]; 500 µM (≈ 279 µg/mL) against Staphylococcus aureus [4]. Moreover, the MBC against Escherichia coli was 250 µM (≈ 139 µg/mL); with Staphylococcus aureus [7], 15.6 µM (≈ 8.7 µg/mL). In addition, the MIC with Staphylococcus aureus [1] was at most 0.97 µM; with Pseudomonas aeruginosa it was 62.5 µM (≈ 34.9 µg/mL); in the assay on Enterococcus hirae, at most 0.97 µM; with Staphylococcus aureus [2] it was 0.97 µM (≈ 0.541 µg/mL); against Staphylococcus aureus [4], 15.6 µM (≈ 8.7 µg/mL); with Escherichia coli, 62.5 µM (≈ 34.9 µg/mL). The molecule also returned an MIC in the assay with Staphylococcus aureus [7] of 7.8 µM (≈ 4.35 µg/mL). Further, the “growth inhibition (GI)” value in [5] was “inactive”. Besides, the inhibition of growth at 10 µM in assay [6] was above 95%.
As for `O=C(CCCCCCCCCCCCCCCCC(=O)OCN1CCN(c2cc3c(cc2F)c(=O)c(C(=O)O)cn3C2CC2)CC1)OCN1CCN(c2cc3c(cc2F)c(=O)c(C(=O)O)cn3C2CC2)CC1`, the MBC is 15.6 µM (≈ 15.6 µg/mL) against Staphylococcus aureus [1], 250 µM (≈ 250 µg/mL) against Pseudomonas aeruginosa, 125 µM (≈ 125 µg/mL) in the assay with Enterococcus hirae and 31.2 µM (≈ 31.2 µg/mL) in the assay on Escherichia coli. Moreover, the MIC in the assay on Staphylococcus aureus [1] was 7.8 µM (≈ 7.81 µg/mL); in the assay with Pseudomonas aeruginosa, 62.5 µM (≈ 62.6 µg/mL); with Enterococcus hirae, 62.5 µM (≈ 62.6 µg/mL); in the assay on Escherichia coli it was 15.6 µM (≈ 15.6 µg/mL). Besides, the “growth inhibition (GI)” value in assay [5] and in [6] was “inactive” in each case.
Turning to `CCCCCCCCCCCCCC(=O)OCC(=O)N1CCN(c2cc3c(cc2F)c(=O)c(C(=O)O)cn3C2CC2)CC1`, the MBC against Staphylococcus aureus [1] is 7.8 µM (≈ 4.68 µg/mL); against Pseudomonas aeruginosa, 250 µM (≈ 150 µg/mL); with Enterococcus hirae, 31.2 µM (≈ 18.7 µg/mL); in the assay on Escherichia coli, 500 µM (≈ 300 µg/mL). The MIC in the assay with Staphylococcus aureus [1] is 7.8 µM (≈ 4.68 µg/mL); with Pseudomonas aeruginosa, 125 µM (≈ 75 µg/mL); with Enterococcus hirae it was 31.2 µM (≈ 18.7 µg/mL); with Escherichia coli it was 125 µM (≈ 75 µg/mL). The “growth inhibition (GI)” value in assay [5] was “inactive”. Further, in [6], the inhibition of growth at 10 µM is above 95%.
As to `CCCCCC(=O)OCOC(=O)c1cn2c3c(c(N4CCN(C)CC4)c(F)cc3c1=O)OC[C@@H]2C`, the “growth inhibition (GI)” value in assay [5] is “inactive”. For the same molecule, the inhibition of growth at 10 µM in assay [6] was above 95%.
In the case of `CCCCCCCCCC(=O)OCOC(=O)c1cn2c3c(c(N4CCN(C)CC4)c(F)cc3c1=O)OC[C@@H]2C`, the MBC is at most 0.97 µM in the assay with Staphylococcus aureus [1], 3.9 µM (≈ 2.13 µg/mL) in the assay with Pseudomonas aeruginosa, 1.9 µM (≈ 1.04 µg/mL) in the assay with Enterococcus hirae and at most 0.97 µM in the assay on Escherichia coli. Also, the MIC with Staphylococcus aureus [1], in the assay with Pseudomonas aeruginosa, against Enterococcus hirae and in the assay with Escherichia coli was at most 0.97 µM throughout. Moreover, the “growth inhibition (GI)” value in assay [5] is “inactive”. In assay [6], the inhibition of growth at 10 µM is above 95%.
For `CCCCCCCCCCCCNC(=O)c1cn2c3c(c(N4CCN(C)CC4)c(F)cc3c1=O)OC[C@@H]2C`, the MBC worked out at 15.6 µM (≈ 8.25 µg/mL) in the assay with Staphylococcus aureus [1], 250 µM (≈ 132 µg/mL) in the assay on Pseudomonas aeruginosa, 3.9 µM (≈ 2.06 µg/mL) against Enterococcus hirae and 500 µM (≈ 264 µg/mL) in the assay on Escherichia coli. Further, the minimal inhibitory concentration (MIC) against Staphylococcus aureus [1] came to 3.9 µM (≈ 2.06 µg/mL); in the assay on Pseudomonas aeruginosa, 62.5 µM (≈ 33 µg/mL); against Enterococcus hirae it was 3.9 µM (≈ 2.06 µg/mL); against Escherichia coli, 125 µM (≈ 66.1 µg/mL). The “growth inhibition (GI)” value in assay [5] was “inactive”. For the same molecule, in [6], the inhibition of growth at 10 µM was above 95%.
For the molecule `C[C@H]1COc2c(N3CCN(C)CC3)c(F)cc3c(=O)c(C(=O)NCCCCCCCCNC(=O)c4cn5c6c(c(N7CCN(C)CC7)c(F)cc6c4=O)OC[C@@H]5C)cn1c23`, the MBC against Staphylococcus aureus [1] was determined as 15.6 µM (≈ 13 µg/mL); with Pseudomonas aeruginosa it was 250 µM (≈ 208 µg/mL); against Enterococcus hirae, 125 µM (≈ 104 µg/mL); against Escherichia coli, 3.9 µM (≈ 3.24 µg/mL). The MIC in the assay with Staphylococcus aureus [1] stood at 15.6 µM (≈ 13 µg/mL); against Pseudomonas aeruginosa it was 62.5 µM (≈ 51.9 µg/mL); in the assay on Enterococcus hirae it was 62.5 µM (≈ 51.9 µg/mL); against Escherichia coli, 3.9 µM (≈ 3.24 µg/mL). For the same molecule, the “growth inhibition (GI)” value in [5] was “inactive”. Further, the inhibition of growth at 10 µM in assay [6] was 60%.
Take `O=C(O)c1cn(C2CC2)c2cc(N3CCN(C(=O)COCc4ccccc4)CC3)c(F)cc2c1=O`: the MBC against Staphylococcus aureus [1] is at most 0.24 µM; in the assay on Pseudomonas aeruginosa it was 250 µM (≈ 120 µg/mL); with Enterococcus hirae it was 7.8 µM (≈ 3.74 µg/mL); against Staphylococcus aureus [2], 0.97 µM (≈ 0.465 µg/mL); with Staphylococcus aureus [3], 0.97 µM (≈ 0.465 µg/mL); against Staphylococcus aureus [4], 500 µM (≈ 240 µg/mL). For the same molecule, the values for the MBC against Escherichia coli and in the assay on Staphylococcus aureus [7] were 1.9 µM (≈ 0.911 µg/mL) and 125 µM (≈ 59.9 µg/mL), respectively. Moreover, the MIC against Staphylococcus aureus [1] is at most 0.12 µM; in the assay on Pseudomonas aeruginosa, 15.6 µM (≈ 7.48 µg/mL); in the assay on Enterococcus hirae, 7.8 µM (≈ 3.74 µg/mL); in the assay on Staphylococcus aureus [2], 0.48 µM (≈ 0.23 µg/mL); against Staphylococcus aureus [3], 0.24 µM (≈ 0.115 µg/mL); against Staphylococcus aureus [4], 125 µM (≈ 59.9 µg/mL). In addition, the MIC against Escherichia coli is at most 0.97 µM; in the assay with Staphylococcus aureus [7], 62.5 µM (≈ 30 µg/mL). For the same molecule, the “growth inhibition (GI)” value in [5] was “inactive”.

Values taken from ChEMBL document CHEMBL1914411, “Synthesis of lipophilic dimeric C-7/C-7-linked ciprofloxacin and C-6/C-6-linked levofloxacin derivatives. Versatile in vitro biological evaluations of monomeric and dimeric fluoroquinolone derivatives as potential antitumor, antibacterial or antimycobacterial agents” (Eur J Med Chem, 2011).
